# Laboratory results: patent EP0511759A1, “Biotoxicity test for chemicals” (THE STANDARD OIL COMPANY, priority 1991, dated 1992)
# Test system: Anthophysa vegetans protozoa
# Assay: Protozoan feeding-behaviour bioassay: turbidity (absorbance at 540 nm) of live bacterial feed remaining
# Assay type: cell-based
# Procedure: The first step of the inventive process comprises adding protozoa and feed into test and control samples which contain inorganic buffers. The chemical substance whose toxic activity is being investigated is then added to the test samples but not to the control samples. The order of adding protozoa, feed and chemical substance is not critical. The amount of protozoa added is usually about at or below 1 x 10⁶ per ml. If dead bacteria are used as feed, they are added at sufficient concentrations to increase the turbidity of the medium to at least 0.3 at 540 nm in a 1.0 cm pathlength tube; this corresponds to concentration of about 2.5 x 10⁹ bacteria per ml. If live bacteria are added as feed, the inoculum level is about 0.01 to about 1% of a fully grown bacterial culture in the range of about 1 x 10⁶ to about 1 x 10⁸ bacteria per ml. […] A sample containing live bacteria is supplemented with a carbon source to support bacterial growth. The carbon sources are generally used at a final concentration of about 0.05%.
# This reduction in turbidity generally takes about 1 to about 5 days. If the feed employs live bacteria, there is an initial increase in the turbidity. This increase is then followed by a decrease in turbidity in the control tubes as stated above. If the test chemical is not toxic to the protozoa, the turbidity decreases in the sample tube. If the test chemical is toxic to the protozoa, the turbidity will remain essentially unchanged. The size and volume of the resulting mixture are not critical, provided there is sufficient volume to permit either visual or spectrophotometrical observations of the change in turbidity of the microbial cultures. Typically, about 3 ml to about 5 ml samples were used.
# Protozoa, Anthophysa vegetans at about 1 x 10⁵ per ml and a mixed bacteria population of soil bacteria containing but not limited to Alcaligenis and Psuedomonas at about 1 x 10⁶ per ml were inoculated into a growth medium as described above in "Culturing and Test Procedures". The bacteria multiplied in numbers and caused an initial increase in the turbidity (absorbance) of the growth medium, generally from about 0.03 to about 0.4, as measured at 540 nm in a 1.0 cm pathlength tube. After about one day of incubation, the bacterial growth ceased due to the limitation of carbon source. […] The protozoa preyed on the bacteria, leading to a reduction in bacterial cell concentration, indicated by a reduction of turbidity. This growth sequence is illustrated in Line A of Figure 2. If the bacterial cultures were grown without added protozoa, a similar increase in turbidity took place. However, there was no significant reduction in turbidity after the growth phase was completed. This is illustrated in Line B of Figure 2.
# Anthophysa vegetans protozoa and live mixed population of soil bacteria containing but not limited to Psuedomonas and Alcaligenis were inoculated into a growth medium as described under "Culturing and Test Procedures". The test chemical, a phenol ethoxylate surfactant, Igepal CO 850 (GAF Chemicals Corp.), was added at different concentrations. A control without added surfactant was maintained. […] However, at about 0 and about 10 ppm surfactant, the absorbance decreased on further incubation. […] The tolerance level of the protozoa, (i.e., the concentration level at which feeding inhibition is first observed) is about 100 ppm Igepal CO 850. […] The protozoa preyed on the bacteria, resulting in reduced absorbance at 540 nm after two days incubation. […]
smiles,measurement,setting,value
O=[N+]([O-])c1ccc(O)cc1 [4-nitrophenol],LC₅₀,Protozoa Inocula Level 0.0001X,0.46 ppm
same,LC₅₀,Protozoa Inocula Level 0.001X,5.6 ppm
same,LC₅₀,Protozoa Inocula Level 0.01X,12.5 ppm
same,LC₅₀,Protozoa Inocula Level 0.1X,19.5 ppm
same,LC₅₀,Protozoa Inocula Level 1.0X,36 ppm
